Measured values reported in ChEMBL document CHEMBL1201862, “PubChem BioAssay data set” (2004).
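These data come from cells grown in 96-well plates and exposed to compound for 48 hours at five concentrations. Abbreviation: GI50, concentration required for 50% inhibition of growth.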 Calls of active or inactive are those of the source. Rule as the data show it: active = GI50 up to about 1.1 µM and inactive = higher.

How the values were obtained:
Assay in all cases: NCI anticancer screen, dose series, 48 h
[1] = test system: BT-549
[2] = test system: CAKI-1
[3] = test system: CCRF-CEM
[4] = test system: COLO 205
[5] = test system: HCC 2998
[6] = test system: HCT-116
[7] = test system: Hs-578T
[8] = test system: K562
[9] = test system: MDA-MB-231
[10] = test system: MOLT-4
[11] = test system: NCI-H226
[12] = test system: NCI-H23
[13] = test system: RPMI-8226
[14] = test system: RXF 393
[15] = test system: SF-539
[16] = test system: SK-MEL-5
[17] = test system: SK-OV-3
[18] = test system: TK-10
[19] = test system: U-251
[20] = test system: UACC-257

SMILES | GI50 [1] | GI50 [2] | GI50 [3] | GI50 [4] | GI50 [5] | GI50 [6] | GI50 [7] | GI50 [8] | GI50 [9] | GI50 [10] | GI50 [11] | GI50 [12] | GI50 [13] | GI50 [14] | GI50 [15] | GI50 [16] | GI50 [17] | GI50 [18] | GI50 [19] | GI50 [20]
O=C1c2ccccc2-n2c1nc1ccccc1c2=O [TRYPTANTHRIN] | 14.6 µM (inactive) | 12.3 µM (inactive) | 9.08 µM (inactive) | 12.8 µM (inactive) | 29.4 µM (inactive) | 5.86 µM (inactive) | 17.1 µM (inactive) | 3.18 µM (inactive) | 16.7 µM (inactive) | 7.94 µM (inactive) | 30.9 µM (inactive) | 9.73 µM (inactive) | 1.04 µM (active) | 28.1 µM (inactive) | 20.7 µM (inactive) | 13.1 µM (inactive) | > 100 µM (inactive) | > 43.3 µM (inactive) | 3.34 µM (inactive) | 3.02 µM (inactive)
O=c1ssc(Cl)c1Cl | > 10 µM (inactive) | 5.38 µM (inactive) | 1.63 µM (inactive) | 2.11 µM (inactive) | > 10 µM (inactive) | > 5.98 µM (inactive) | > 10 µM (inactive) | 3.23 µM (inactive) | > 10 µM (inactive) | 2.39 µM (inactive) | > 10 µM (inactive) | > 10 µM (inactive) | 5.19 µM (inactive) | > 10 µM (inactive) | > 10 µM (inactive) | > 10 µM (inactive) | > 10 µM (inactive) | > 10 µM (inactive) | > 10 µM (inactive) | > 7.19 µM (inactive)
Nc1ncnc2c1ncn2[C@H]1CC[C@@H](NO)C1 | > 100 µM (inactive) | > 100 µM (inactive) | > 100 µM (inactive) | > 100 µM (inactive) | > 100 µM (inactive) | > 100 µM (inactive) | > 100 µM (inactive) | > 100 µM (inactive) | > 100 µM (inactive) | > 100 µM (inactive) | > 100 µM (inactive) | > 100 µM (inactive) | > 100 µM (inactive) | > 100 µM (inactive) | > 100 µM (inactive) | > 100 µM (inactive) | > 100 µM (inactive) | > 100 µM (inactive) | > 100 µM (inactive) | > 100 µM (inactive)
Clc1ccc(Cc2nc3ccccc3o2)cc1 | 35.8 µM (inactive) | 54.8 µM (inactive) | 40.1 µM (inactive) | 74.6 µM (inactive) | 54 µM (inactive) | 66.7 µM (inactive) | > 100 µM (inactive) | 50.7 µM (inactive) | > 100 µM (inactive) | 38.5 µM (inactive) | 40.4 µM (inactive) | 56 µM (inactive) | 27.6 µM (inactive) | 25.3 µM (inactive) | > 100 µM (inactive) | 31.3 µM (inactive) | > 100 µM (inactive) | > 100 µM (inactive) | 72.1 µM (inactive) | 52.1 µM (inactive)
COC(=O)C1Cc2c(C)cccc2C1=O (stereo not given) | > 100 µM (inactive) | > 100 µM (inactive) | 41.3 µM (inactive) | > 100 µM (inactive) | > 100 µM (inactive) | > 100 µM (inactive) | > 100 µM (inactive) | 66.7 µM (inactive) | > 100 µM (inactive) | > 100 µM (inactive) | > 100 µM (inactive) | > 100 µM (inactive) | > 100 µM (inactive) | > 100 µM (inactive) | > 100 µM (inactive) | > 100 µM (inactive) | > 100 µM (inactive) | > 100 µM (inactive) | > 100 µM (inactive) | > 100 µM (inactive)
O=c1[nH]nc(Cc2ccc(Cl)cc2)n1/N=C/c1ccc([N+](=O)[O-])o1 | 1.87 µM (inactive) | 3.24 µM (inactive) | 1.76 µM (inactive) | 1.84 µM (inactive) | 2.13 µM (inactive) | 1.29 µM (inactive) | 2.25 µM (inactive) | 2.58 µM (inactive) | 3.38 µM (inactive) | 1.55 µM (inactive) | 9.18 µM (inactive) | 3.34 µM (inactive) | 1.12 µM (active) | 1.56 µM (inactive) | 2.21 µM (inactive) | 2.61 µM (inactive) | 5.22 µM (inactive) | 4.27 µM (inactive) | 4.12 µM (inactive) | 2.77 µM (inactive)
CCCCCCCCCCCCCCCC(=O)Nc1ccn(C2OC(CO)C(O)C2O)c(=O)n1 (stereo not given) | 33.7 µM (inactive) | 28.7 µM (inactive) | 0.0308 µM (active) | 37.9 µM (inactive) | 25.1 µM (inactive) | 1.21 µM (inactive) | > 45.2 µM (inactive) | 9.75 µM (inactive) | > 62.8 µM (inactive) | 0.131 µM (active) | 30.5 µM (inactive) | 2.05 µM (inactive) | 42.2 µM (inactive) | 24.6 µM (inactive) | 57.7 µM (inactive) | 29.9 µM (inactive) | 16.7 µM (inactive) | > 100 µM (inactive) | 12.4 µM (inactive) | 78.3 µM (inactive)
COc1cc(/C=C2\CCC/C(=C\c3cc(OC)c(O)c(OC)c3)C2=O)cc(OC)c1O | 1.53 µM (inactive) | 1.84 µM (inactive) | 0.43 µM (active) | 9.38 µM (inactive) | 1.35 µM (inactive) | 1.32 µM (inactive) | 3.75 µM (inactive) | 4.81 µM (inactive) | 2.71 µM (inactive) | 4.38 µM (inactive) | 10.4 µM (inactive) | 1.35 µM (inactive) | 1.55 µM (inactive) | 1.43 µM (inactive) | 2.16 µM (inactive) | 2.28 µM (inactive) | 1.81 µM (inactive) | 5.33 µM (inactive) | 1.36 µM (inactive) | 3.42 µM (inactive)
CC12CC(Br)(Br)C(=O)C3C1CCCC32 | 2.09 µM (inactive) | 2.65 µM (inactive) | 1.36 µM (inactive) | 2.38 µM (inactive) | 6.89 µM (inactive) | 1.93 µM (inactive) | 12.6 µM (inactive) | 2.1 µM (inactive) | 3.24 µM (inactive) | 1.67 µM (inactive) | 11.3 µM (inactive) | 6.46 µM (inactive) | 2.84 µM (inactive) | 2.11 µM (inactive) | 11.9 µM (inactive) | 5.55 µM (inactive) | 15.3 µM (inactive) | 6.27 µM (inactive) | 11.5 µM (inactive) | 8.65 µM (inactive)
Cc1nc2[nH]ccn2c(=O)c1CCCl | 25.2 µM (inactive) | > 10 µM (inactive) | 18 µM (inactive) | 38.7 µM (inactive) | 19.2 µM (inactive) | 17 µM (inactive) | 37.6 µM (inactive) | 22.9 µM (inactive) | 38.7 µM (inactive) | 14.8 µM (inactive) | > 100 µM (inactive) | 18.3 µM (inactive) | 28 µM (inactive) | 19.4 µM (inactive) | 17.1 µM (inactive) | 17.1 µM (inactive) | 26.5 µM (inactive) | 31 µM (inactive) | 20.9 µM (inactive) | 94.2 µM (inactive)
CC(=O)NC1C(OC(C)C(=O)NC(C)C(=O)NC(CCC(=O)NCCCCCNc2ccc([N+](=O)[O-])c3[nH]c4ccccc4c(=O)c23)C(N)=O)C(O)C(CO)OC1(C)OCc1ccccc1 (stereo not given) | > 100 µM (inactive) | > 100 µM (inactive) | > 100 µM (inactive) | > 100 µM (inactive) | > 100 µM (inactive) | 23.7 µM (inactive) | > 100 µM (inactive) | 45.3 µM (inactive) | 46.9 µM (inactive) | 24.8 µM (inactive) | 89.9 µM (inactive) | > 100 µM (inactive) | 28.1 µM (inactive) | 87.1 µM (inactive) | 64.1 µM (inactive) | > 100 µM (inactive) | > 100 µM (inactive) | 11.9 µM (inactive) | > 100 µM (inactive) | > 100 µM (inactive)
O=C1C(=CNc2ccccc2Cl)C(=O)N(c2ccccc2)C(=O)N1c1ccccc1 | > 100 µM (inactive) | > 100 µM (inactive) | > 100 µM (inactive) | > 100 µM (inactive) | > 100 µM (inactive) | > 100 µM (inactive) | 80.4 µM (inactive) | > 100 µM (inactive) | > 100 µM (inactive) | > 100 µM (inactive) | > 100 µM (inactive) | > 100 µM (inactive) | > 100 µM (inactive) | > 100 µM (inactive) | > 100 µM (inactive) | > 100 µM (inactive) | > 100 µM (inactive) | > 100 µM (inactive) | > 100 µM (inactive) | > 100 µM (inactive)
O=C1c2cccc3cc4ccccc4c(c23)C(=O)N1CCCNCCNCCCN1C(=O)c2cccc3cc4ccccc4c(c23)C1=O | 1.24 µM (inactive) | 0.141 µM (active) | < 0.01 µM (active) | 0.0316 µM (active) | 0.0964 µM (active) | < 0.0191 µM (active) | 0.0635 µM (active) | < 0.01 µM (active) | 0.189 µM (active) | < 0.01 µM (active) | 0.411 µM (active) | 0.0509 µM (active) | < 0.01 µM (active) | 0.179 µM (active) | 0.142 µM (active) | 0.128 µM (active) | 0.31 µM (active) | 1 µM (active) | 0.0264 µM (active) | 1.02 µM (active)
O=C1c2ccccc2-c2c1c1ccccc1c(=O)n2-c1cccnc1 | 34.8 µM (inactive) | 35.3 µM (inactive) | > 10 µM (inactive) | > 68.1 µM (inactive) | > 100 µM (inactive) | 27.3 µM (inactive) | 37 µM (inactive) | > 60.3 µM (inactive) | > 59.7 µM (inactive) | 3.78 µM (inactive) | 61.5 µM (inactive) | 37.8 µM (inactive) | > 39.5 µM (inactive) | > 100 µM (inactive) | 21.3 µM (inactive) | 73.5 µM (inactive) | 42.6 µM (inactive) | > 62.1 µM (inactive) | 22.7 µM (inactive) | > 100 µM (inactive)
